Key:
[1] = target: T1, Cytochrome P450 1A2 (Homo sapiens, UniProt P05177); experiment: (§1) Drug metabolism assessed as human […]-mediated compound formation from 5 uM [14C]boceprevir after 120 mins by LC-MS/FSA method relative to total [14C]boceprevir; type: ADME; conditions: recombinant enzyme, 2 h
T1 sequence (P05177 whole entry): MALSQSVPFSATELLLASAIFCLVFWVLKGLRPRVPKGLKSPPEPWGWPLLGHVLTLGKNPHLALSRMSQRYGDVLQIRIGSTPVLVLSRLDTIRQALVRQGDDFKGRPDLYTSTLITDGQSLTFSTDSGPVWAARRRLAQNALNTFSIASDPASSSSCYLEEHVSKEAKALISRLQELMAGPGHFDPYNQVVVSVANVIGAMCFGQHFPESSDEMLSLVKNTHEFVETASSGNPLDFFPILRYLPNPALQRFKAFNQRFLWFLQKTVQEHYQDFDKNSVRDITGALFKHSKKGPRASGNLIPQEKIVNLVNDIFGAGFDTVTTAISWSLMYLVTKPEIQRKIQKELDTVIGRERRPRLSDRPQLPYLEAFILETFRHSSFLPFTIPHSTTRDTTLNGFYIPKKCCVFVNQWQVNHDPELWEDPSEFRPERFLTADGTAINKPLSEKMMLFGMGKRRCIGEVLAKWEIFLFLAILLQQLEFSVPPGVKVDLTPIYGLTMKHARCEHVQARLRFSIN

[2] = target: T2, Cytochrome P450 1A1 (Homo sapiens, UniProt P04798); experiment: as §1; type: ADME; conditions: recombinant enzyme, 2 h
T2 sequence (P04798 whole entry): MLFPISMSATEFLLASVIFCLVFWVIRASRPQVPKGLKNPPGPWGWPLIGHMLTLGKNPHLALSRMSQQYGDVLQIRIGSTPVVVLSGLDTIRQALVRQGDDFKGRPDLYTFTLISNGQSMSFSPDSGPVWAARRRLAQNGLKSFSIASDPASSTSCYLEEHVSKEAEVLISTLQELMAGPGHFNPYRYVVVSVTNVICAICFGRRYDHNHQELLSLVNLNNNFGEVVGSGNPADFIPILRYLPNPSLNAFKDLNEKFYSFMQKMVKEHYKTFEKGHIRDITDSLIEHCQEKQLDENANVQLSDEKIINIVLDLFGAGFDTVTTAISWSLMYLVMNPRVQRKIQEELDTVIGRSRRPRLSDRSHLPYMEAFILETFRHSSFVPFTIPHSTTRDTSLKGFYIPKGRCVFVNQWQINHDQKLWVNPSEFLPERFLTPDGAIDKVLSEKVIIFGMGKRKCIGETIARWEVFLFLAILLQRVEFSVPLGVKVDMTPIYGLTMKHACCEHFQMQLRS

[3] = target: T3, Cytochrome P450 2B6 (Homo sapiens, UniProt P20813); experiment: Drug metabolism assessed as human CYP2B6-mediated compound formation from 5 uM [14C]boceprevir after 120 mins by LC-MS/FSA method relative to total [14C]boceprevir; type: ADME; conditions: recombinant enzyme, 2 h
T3 sequence (P20813 whole entry): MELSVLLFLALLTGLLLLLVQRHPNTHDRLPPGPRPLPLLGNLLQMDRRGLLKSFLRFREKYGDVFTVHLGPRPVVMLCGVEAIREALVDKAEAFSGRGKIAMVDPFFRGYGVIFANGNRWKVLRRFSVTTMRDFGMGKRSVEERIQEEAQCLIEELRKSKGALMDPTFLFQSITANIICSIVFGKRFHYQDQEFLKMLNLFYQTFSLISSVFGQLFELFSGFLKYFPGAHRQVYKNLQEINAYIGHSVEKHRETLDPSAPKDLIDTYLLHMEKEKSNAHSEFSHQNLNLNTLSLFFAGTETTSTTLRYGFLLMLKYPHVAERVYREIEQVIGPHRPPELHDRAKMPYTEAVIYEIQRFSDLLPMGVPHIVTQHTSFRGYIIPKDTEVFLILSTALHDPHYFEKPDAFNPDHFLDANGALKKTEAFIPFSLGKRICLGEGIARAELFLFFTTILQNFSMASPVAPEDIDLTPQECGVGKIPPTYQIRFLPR

[4] = target: T4, Cytochrome P450 3A5 (Homo sapiens, UniProt P20815); experiment: Drug metabolism assessed as human CYP3A5-mediated compound formation from 5 uM [14C]boceprevir after 120 mins by LC-MS/FSA method relative to total [14C]boceprevir; type: ADME; conditions: recombinant enzyme, 2 h
T4 sequence (P20815 whole entry): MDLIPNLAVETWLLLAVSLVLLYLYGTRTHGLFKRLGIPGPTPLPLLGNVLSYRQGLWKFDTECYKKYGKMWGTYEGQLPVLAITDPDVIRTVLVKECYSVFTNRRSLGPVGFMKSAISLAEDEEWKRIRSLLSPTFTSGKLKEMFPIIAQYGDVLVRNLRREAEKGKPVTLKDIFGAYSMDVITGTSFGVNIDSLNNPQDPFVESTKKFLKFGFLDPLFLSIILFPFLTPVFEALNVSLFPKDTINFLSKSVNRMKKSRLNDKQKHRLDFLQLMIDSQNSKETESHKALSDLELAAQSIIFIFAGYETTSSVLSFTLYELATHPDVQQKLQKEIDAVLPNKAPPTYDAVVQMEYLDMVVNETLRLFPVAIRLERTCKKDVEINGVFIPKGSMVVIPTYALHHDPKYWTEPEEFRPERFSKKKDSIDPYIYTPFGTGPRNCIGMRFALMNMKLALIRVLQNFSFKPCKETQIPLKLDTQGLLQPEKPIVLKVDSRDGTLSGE

[5] = test system: Liver microsome; experiment: Drug metabolism in human liver microsomes treated with 20 uM [14C]boceprevir assessed as compound formation by LC-MS/FSA method relative to total [14C]boceprevir; type: ADME
[6] = target: T5, Cytochrome P450 3A4 (Homo sapiens, UniProt P08684); experiment: Drug metabolism assessed as human CYP3A4-mediated compound formation from 20 uM [14C]boceprevir after 120 mins by LC-MS/FSA method relative to total [14C]boceprevir; type: ADME; conditions: recombinant enzyme, 2 h
T5 sequence (P08684 whole entry): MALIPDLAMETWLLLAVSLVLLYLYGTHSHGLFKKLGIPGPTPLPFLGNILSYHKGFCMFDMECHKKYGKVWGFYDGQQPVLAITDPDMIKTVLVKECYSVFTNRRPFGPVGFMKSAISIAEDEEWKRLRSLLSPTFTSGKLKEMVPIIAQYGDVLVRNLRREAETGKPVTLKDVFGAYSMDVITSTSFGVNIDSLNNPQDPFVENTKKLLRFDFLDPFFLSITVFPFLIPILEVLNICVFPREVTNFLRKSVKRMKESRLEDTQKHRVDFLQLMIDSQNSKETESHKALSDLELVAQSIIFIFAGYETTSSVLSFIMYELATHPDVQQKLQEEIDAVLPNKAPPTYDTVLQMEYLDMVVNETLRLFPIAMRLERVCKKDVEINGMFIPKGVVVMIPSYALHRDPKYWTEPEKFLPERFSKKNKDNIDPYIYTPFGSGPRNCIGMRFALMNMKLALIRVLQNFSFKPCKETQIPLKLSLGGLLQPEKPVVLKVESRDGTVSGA

[7] = target: Cytochrome P450 2C19 (Homo sapiens, UniProt P33261); experiment: Drug metabolism assessed as human CYP2C19-mediated compound formation from 5 uM [14C]boceprevir after 120 mins by LC-MS/FSA method relative to total [14C]boceprevir; type: ADME; conditions: recombinant enzyme, 2 h
Sequence of Cytochrome P450 2C19 (P33261 whole entry): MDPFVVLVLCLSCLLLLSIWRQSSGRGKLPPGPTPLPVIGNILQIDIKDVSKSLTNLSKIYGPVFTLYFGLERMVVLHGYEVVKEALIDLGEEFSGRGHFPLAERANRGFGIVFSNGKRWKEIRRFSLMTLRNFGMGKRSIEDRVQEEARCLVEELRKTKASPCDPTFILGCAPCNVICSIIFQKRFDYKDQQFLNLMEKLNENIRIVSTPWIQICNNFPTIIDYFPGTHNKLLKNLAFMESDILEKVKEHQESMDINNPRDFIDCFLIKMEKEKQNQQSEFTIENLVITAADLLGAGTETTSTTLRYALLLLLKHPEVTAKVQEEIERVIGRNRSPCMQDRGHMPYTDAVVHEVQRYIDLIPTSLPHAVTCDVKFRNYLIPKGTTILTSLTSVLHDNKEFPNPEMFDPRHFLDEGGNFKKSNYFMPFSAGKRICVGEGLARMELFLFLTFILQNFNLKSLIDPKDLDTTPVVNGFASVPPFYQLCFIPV

[8] = target: T5, Cytochrome P450 3A4; experiment: Drug metabolism assessed as human CYP3A4-mediated compound formation from 5 uM [14C]boceprevir after 120 mins by LC-MS/FSA method relative to total [14C]boceprevir; type: ADME; conditions: recombinant enzyme, 2 h
[9] = target: T4, Cytochrome P450 3A5; experiment: Drug metabolism assessed as human CYP3A5-mediated compound formation from 20 uM [14C]boceprevir after 120 mins by LC-MS/FSA method relative to total [14C]boceprevir; type: ADME; conditions: recombinant enzyme, 2 h
[10] = target: T6, Cytochrome P450 4F3 (Homo sapiens, UniProt Q08477); experiment: Drug metabolism assessed as human CYP4F3A-mediated compound formation from 5 uM [14C]boceprevir after 120 mins by LC-MS/FSA method relative to total [14C]boceprevir; type: ADME; conditions: recombinant enzyme, 2 h
T6 sequence (Q08477 whole entry): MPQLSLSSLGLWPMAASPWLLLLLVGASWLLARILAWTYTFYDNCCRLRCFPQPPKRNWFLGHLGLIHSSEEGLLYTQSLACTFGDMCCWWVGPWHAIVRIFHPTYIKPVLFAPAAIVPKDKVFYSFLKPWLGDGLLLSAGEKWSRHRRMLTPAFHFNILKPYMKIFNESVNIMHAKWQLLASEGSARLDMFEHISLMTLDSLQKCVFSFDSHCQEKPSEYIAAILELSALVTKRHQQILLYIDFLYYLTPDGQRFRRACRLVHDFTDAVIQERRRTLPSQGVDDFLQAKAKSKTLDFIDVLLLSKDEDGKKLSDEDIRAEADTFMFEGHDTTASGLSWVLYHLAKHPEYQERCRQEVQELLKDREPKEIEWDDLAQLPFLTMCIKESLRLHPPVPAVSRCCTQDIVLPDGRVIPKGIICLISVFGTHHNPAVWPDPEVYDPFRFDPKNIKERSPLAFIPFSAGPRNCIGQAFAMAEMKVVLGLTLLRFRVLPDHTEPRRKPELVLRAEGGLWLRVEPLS

[11] = test system: Liver microsome; experiment: Drug metabolism in human liver microsomes treated with 5 uM [14C]boceprevir assessed as compound formation by LC-MS/FSA method relative to total [14C]boceprevir; type: ADME
[12] = Retention time of the compound by LC-MS/MS method; type: physicochemical
[13] = test system: Plasma; experiment: Drug metabolism in human plasma treated with [14C]boceprevir assessed as ratio of drug level by LC-MS/MS method relative to boceprevir; type: ADME, cell-free
[14] = test system: Liver cytosol; experiment: Ratio of Vmax to Km for drug metabolism in human liver cytosol assessed as (1R,2S,5S)-N-((2S,3R)-4-amino-1-cyclobutyl-3-hydroxy-4-oxobutan-2-yl)-3-((S)-2-(3-tert-butylureido)-3,3-dimethylbutanoyl)-6,6-dimethyl-3-azabicyclo[3.1.0]hexane-2-carboxamide formation per mg protein after 60 mins by LC-MS/MS/FSA method; type: ADME; conditions: 1 h
[15] = target: Cytochrome P450 2D6 (Homo sapiens, UniProt P10635); experiment: Drug metabolism assessed as human CYP2D6-mediated compound formation from 5 uM [14C]boceprevir after 120 mins by LC-MS/FSA method relative to total [14C]boceprevir; type: ADME; conditions: recombinant enzyme, 2 h
Sequence of Cytochrome P450 2D6 (P10635 whole entry): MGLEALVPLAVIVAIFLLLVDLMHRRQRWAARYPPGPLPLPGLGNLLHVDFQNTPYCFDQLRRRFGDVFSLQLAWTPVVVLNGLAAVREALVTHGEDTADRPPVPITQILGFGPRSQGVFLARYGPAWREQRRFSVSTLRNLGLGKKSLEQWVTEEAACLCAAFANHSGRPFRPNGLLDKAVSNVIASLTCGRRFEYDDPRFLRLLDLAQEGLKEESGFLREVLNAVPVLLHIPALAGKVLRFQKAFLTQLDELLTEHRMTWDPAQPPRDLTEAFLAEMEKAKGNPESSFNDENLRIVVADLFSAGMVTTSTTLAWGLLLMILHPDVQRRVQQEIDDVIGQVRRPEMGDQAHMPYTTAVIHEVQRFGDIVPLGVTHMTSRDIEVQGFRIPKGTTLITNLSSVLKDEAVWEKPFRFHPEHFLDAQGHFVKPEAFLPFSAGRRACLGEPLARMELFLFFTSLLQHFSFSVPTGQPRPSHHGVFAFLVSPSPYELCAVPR

[16] = test system: Liver cytosol; experiment: Drug metabolism in human liver cytosol assessed as (1R,2S,5S)-N-((2S,3R)-4-amino-1-cyclobutyl-3-hydroxy-4-oxobutan-2-yl)-3-((S)-2-(3-tert-butylureido)-3,3-dimethylbutanoyl)-6,6-dimethyl-3-azabicyclo[3.1.0]hexane-2-carboxamide formation after 60 mins by LC-MS/MS/FSA method; type: ADME, tissue-based; conditions: 1 h
[17] = test system: Liver cytosol; experiment: Drug metabolism in human liver cytosol assessed as (1R,2S,5S)-N-((2S,3R)-4-amino-1-cyclobutyl-3-hydroxy-4-oxobutan-2-yl)-3-((S)-2-(3-tert-butylureido)-3,3-dimethylbutanoyl)-6,6-dimethyl-3-azabicyclo[3.1.0]hexane-2-carboxamide formation per mg protein after 60 mins by LC-MS/MS/FSA method; type: ADME, tissue-based; conditions: 1 h
[18] = test system: Liver cytosol; experiment: Ratio of Vmax to Km for drug metabolism in human liver cytosol assessed as (1R,2S,5S)-N-((2R,3R)-4-amino-1-cyclobutyl-3-hydroxy-4-oxobutan-2-yl)-3-((S)-2-(3-tert-butylureido)-3,3-dimethylbutanoyl)-6,6-dimethyl-3-azabicyclo[3.1.0]hexane-2-carboxamide formation per mg protein after 60 mins by LC-MS/MS/FSA method; type: ADME; conditions: 1 h
[19] = test system: Liver cytosol; experiment: Drug metabolism in human liver cytosol assessed as (1R,2S,5S)-N-((2R,3R)-4-amino-1-cyclobutyl-3-hydroxy-4-oxobutan-2-yl)-3-((S)-2-(3-tert-butylureido)-3,3-dimethylbutanoyl)-6,6-dimethyl-3-azabicyclo[3.1.0]hexane-2-carboxamide formation after 60 mins by LC-MS/MS/FSA method; type: ADME, tissue-based; conditions: 1 h
[20] = test system: Liver cytosol; experiment: Drug metabolism in human liver cytosol assessed as (1R,2S,5S)-N-((2R,3R)-4-amino-1-cyclobutyl-3-hydroxy-4-oxobutan-2-yl)-3-((S)-2-(3-tert-butylureido)-3,3-dimethylbutanoyl)-6,6-dimethyl-3-azabicyclo[3.1.0]hexane-2-carboxamide formation per mg protein after 60 mins by LC-MS/MS/FSA method; type: ADME, tissue-based; conditions: 1 h

Compound | Compound recovery [1] [%] | Compound recovery [2] [%] | Compound recovery [3] [%] | Compound recovery [4] [%] | Compound recovery [5] [%] | Compound recovery [6] [%] | Compound recovery [7] [%] | Compound recovery [9] [%] | Compound recovery [10] [%] | Compound recovery [11] [%] | Retention_time [12] [min] | Compound recovery [13] | Vmax/Km [14] [µL/min] | Km [16] [µM] | Vmax [17] [pmol/min] | other results
CC(C)(C)NC(=O)N[C@H](C(=O)N1C[C@H]2[C@@H]([C@H]1C(=O)O)C2(C)C)C(C)(C)C | 0.29 | 0.33 | 0.22 | 2.22 | 1.1 | 0.58 | 0.29 | < 0.81 | 0.24 | 4.2 | 16.6 | <= 10% |  |  |  | Compound recovery [8]: 4.57%
CC(C)(C)NC(=O)N[C@H](C(=O)N1C[C@H]2[C@@H]([C@H]1C(=O)N[C@@H](CC1CCC1)C(=O)C(N)=O)C2(C)C)C(C)(C)C [BOCEPREVIR] | 59.66 | 55.46 | 56.54 | 0.98 | 26.12 | 37.98 | 60.3 | 38.77 | 57.31 | 0.21 | 42.8 | >= 50% | 10.2 | 35.5 | 0.361 | Compound recovery ([8]; BLD = below limit of detection): BLD; Compound recovery [15]: 57.22%
CC(C)(C)NC(=O)N[C@H](C(=O)N1C[C@H]2[C@@H]([C@H]1C(=O)NC(CC1CCC1)C(=O)C(N)=O)C2(C)C)C(C)(C)C (stereo in doubt) [BOCEPREVIR] |  |  |  |  |  |  |  |  |  |  |  |  | 2.2 | 13 | 28.6 | Vmax/Km [18]: 2.8 µL/min; Km [19]: 12.5 µM; Vmax [20]: 34.9 pmol/min
